According to ChEMBL document CHEMBL3885861, “Open TG-GATES”:

Species: Rattus norvegicus
Test: Open TG-GATES - Regimen: Single
Type: toxicity, organism-based, Sprague-Dawley
Parameters: regimen Single, gender Male, age 6 weeks
Conditions: in vivo, po, 100 mg/kg, route gavage, dose level Low; for APTT / Bas / Eos / Fbg / Hb / Ht / Lym / MCH / MCHC / MCV / Mono / Neu / PT / Plat / RBC / Ret / WBC: tissue Blood; for KIDNEY_L / KIDNEY_R / KIDNEY_TOTAL: tissue Kidney; for LIVER: tissue Liver; for A/G / ALP / ALT / AST / BUN / CRE / Ca / Cl / DBIL / GLC / IP / K / LDH / Na / PL / RALB / TBIL / TC / TG / TP / gamma-GTP: tissue Plasma

Compound: CNC(=C[N+](=O)[O-])NCCSCc1ccc(CN(C)C)o1 [RANITIDINE]
- TERMINAL_BW (3 h): 216.8 g
- APTT (3 h): 19.1 s
- Bas (3 h): 0%
- Eos (3 h): 1%
- Fbg (3 h): 225.4 mg/dL
- Hb (3 h): 13.7 g/dL
- Ht (3 h): 39.7%
- Lym (3 h): 76.8%
- MCH (3 h): 22.3 pg
- MCHC (3 h): 34.5%
- MCV (3 h): 64.5 fL
- Mono (3 h): 2.8%
- Neu (3 h): 15.2%
- PT (3 h): 12.1 s
- Plat (3 h): 118 x10_4/uL
- RBC (3 h): 616 x10_4/ul
- Ret (3 h): 7.4%
- WBC (3 h): 87.6 x10_2/uL
- KIDNEY_L (3 h): 1 g
- KIDNEY_R (3 h): 1 g
- KIDNEY_TOTAL (3 h): 2 g
- LIVER (3 h): 10.3 g
- A/G (3 h): 1.6
- ALP (3 h): 1082.6 IU/L
- ALT (3 h): 38.2 IU/L
- AST (3 h): 66.6 IU/L
- BUN (3 h): 11.4 mg/dL
- CRE (3 h): 0.4 mg/dL
- Ca (3 h): 10.7 mg/dL
- Cl (3 h): 103.8 meq/L
- DBIL (3 h): 0.078 mg/dL
- GLC (3 h): 190.6 mg/dL
- IP (3 h): 8.7 mg/dL
- K (3 h): 3.7 meq/L
- LDH (3 h): 153 IU/L
- Na (3 h): 141 meq/L
- PL (3 h): 137.8 mg/dL
- RALB (3 h): 3.4 g/dL
- TBIL (3 h): 0.1 mg/dL
- TC (3 h): 73.2 mg/dL
- TG (3 h): 57.4 mg/dL
- TP (3 h): 5.6 g/dL
- gamma-GTP (3 h): 1.2 IU/L
- TERMINAL_BW (6 h): 216.3 g
- APTT (6 h): 17.7 s
- Bas (6 h): 0%
- Eos (6 h): 0.6%
- Fbg (6 h): 229.6 mg/dL
- Hb (6 h): 12.9 g/dL
- Ht (6 h): 37.1%
- Lym (6 h): 73.2%
- MCH (6 h): 22 pg
- MCHC (6 h): 34.8%
- MCV (6 h): 63.2 fL
- Mono (6 h): 2.2%
- Neu (6 h): 19.6%
- PT (6 h): 12.3 s
- Plat (6 h): 118.8 x10_4/uL
- RBC (6 h): 588 x10_4/ul
- Ret (6 h): 7.3%
- WBC (6 h): 96.3 x10_2/uL
- KIDNEY_L (6 h): 1 g
- KIDNEY_R (6 h): 1 g
- KIDNEY_TOTAL (6 h): 2 g
- LIVER (6 h): 9.3 g
- A/G (6 h): 1.7
- ALP (6 h): 929.4 IU/L
- ALT (6 h): 34 IU/L
- AST (6 h): 66.4 IU/L
- BUN (6 h): 9.6 mg/dL
- CRE (6 h): 0.4 mg/dL
- Ca (6 h): 10.5 mg/dL
- Cl (6 h): 103.4 meq/L
- DBIL (6 h): 0.074 mg/dL
- GLC (6 h): 198 mg/dL
- IP (6 h): 8.6 mg/dL
- K (6 h): 3.8 meq/L
- LDH (6 h): 168.8 IU/L
- Na (6 h): 140.4 meq/L
- PL (6 h): 134.2 mg/dL
- RALB (6 h): 3.4 g/dL
- TBIL (6 h): 0.1 mg/dL
- TC (6 h): 73 mg/dL
- TG (6 h): 52.8 mg/dL
- TP (6 h): 5.4 g/dL
- gamma-GTP (6 h): 1.4 IU/L
- TERMINAL_BW (9 h): 213.4 g
- APTT (9 h): 19.1 s
- Bas (9 h): 0%
- Eos (9 h): 1%
- Fbg (9 h): 217.2 mg/dL
- Hb (9 h): 13.2 g/dL
- Ht (9 h): 37.7%
- Lym (9 h): 72%
- MCH (9 h): 22.1 pg
- MCHC (9 h): 34.9%
- MCV (9 h): 63.3 fL
- Mono (9 h): 2.6%
- Neu (9 h): 21.8%
- PT (9 h): 12.6 s
- Plat (9 h): 116.5 x10_4/uL
- RBC (9 h): 596.2 x10_4/ul
- Ret (9 h): 7.2%
- WBC (9 h): 81.2 x10_2/uL
- KIDNEY_L (9 h): 1 g
- KIDNEY_R (9 h): 1 g
- KIDNEY_TOTAL (9 h): 1.9 g
- LIVER (9 h): 8.4 g
- A/G (9 h): 1.6
- ALP (9 h): 835.8 IU/L
- ALT (9 h): 32.2 IU/L
- AST (9 h): 68 IU/L
- BUN (9 h): 10 mg/dL
- CRE (9 h): 0.3 mg/dL
- Ca (9 h): 10.3 mg/dL
- Cl (9 h): 103.4 meq/L
- DBIL (9 h): 0.062 mg/dL
- GLC (9 h): 194.2 mg/dL
- IP (9 h): 8.4 mg/dL
- K (9 h): 3.6 meq/L
- LDH (9 h): 144.4 IU/L
- Na (9 h): 140.4 meq/L
- PL (9 h): 132.6 mg/dL
- RALB (9 h): 3.3 g/dL
- TBIL (9 h): 0.1 mg/dL
- TC (9 h): 78.6 mg/dL
- TG (9 h): 22.2 mg/dL
- TP (9 h): 5.3 g/dL
- gamma-GTP (9 h): 1.4 IU/L
- TERMINAL_BW (24 h): 226.3 g
- APTT (24 h): 19.4 s
- Bas (24 h): 0%
- Eos (24 h): 1%
- Fbg (24 h): 227 mg/dL
- Hb (24 h): 13.9 g/dL
- Ht (24 h): 39.7%
- Lym (24 h): 79.2%
- MCH (24 h): 22.7 pg
- MCHC (24 h): 35.2%
- MCV (24 h): 64.4 fL
- Mono (24 h): 2.4%
- Neu (24 h): 15.2%
- PT (24 h): 12 s
- Plat (24 h): 116.2 x10_4/uL
- RBC (24 h): 617.2 x10_4/ul
- Ret (24 h): 6.5%
- WBC (24 h): 100.7 x10_2/uL
- KIDNEY_L (24 h): 1 g
- KIDNEY_R (24 h): 1 g
- KIDNEY_TOTAL (24 h): 2 g
- LIVER (24 h): 10.7 g
- A/G (24 h): 1.5
- ALP (24 h): 931.8 IU/L
- ALT (24 h): 33.8 IU/L
- AST (24 h): 65.6 IU/L
- BUN (24 h): 14.4 mg/dL
- CRE (24 h): 0.4 mg/dL
- Ca (24 h): 10.8 mg/dL
- Cl (24 h): 102.2 meq/L
- DBIL (24 h): 0.086 mg/dL
- GLC (24 h): 196.6 mg/dL
- IP (24 h): 7.6 mg/dL
- K (24 h): 4 meq/L
- LDH (24 h): 147.8 IU/L
- Na (24 h): 140.2 meq/L
- PL (24 h): 142.8 mg/dL
- RALB (24 h): 3.3 g/dL
- TBIL (24 h): 0.1 mg/dL
- TC (24 h): 70.8 mg/dL
- TG (24 h): 90 mg/dL
- TP (24 h): 5.5 g/dL
- gamma-GTP (24 h): 1 IU/L
